According to ChEMBL document CHEMBL1201862, “PubChem BioAssay data set” (2004):
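96-well plates; 48 h exposure; 5 concentrations. Endpoints by linear interpolation between flanking doses. Not reached: highest tested concentration assigned. The concentration for 50% growth inhibition is given as GI50.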 Calls of active or inactive are those of the source. Rule as the data show it: active = GI50 up to about 1.1 µM and inactive = higher.

Experiments:
Test in all cases: growth of human tumour cells (NCI), 48 h
[1] = system: SF-539
[2] = system: NCI/ADR-RES
[3] = system: HCT-15
[4] = system: A549
[5] = system: HCC 2998
[6] = system: RPMI-8226
[7] = system: T47D
[8] = system: HL-60
[9] = system: OVCAR-4
[10] = system: A498
[11] = system: SK-OV-3
[12] = system: ACHN
[13] = system: K562
[14] = system: Malme-3M
[15] = system: COLO 205
[16] = system: UACC-257
[17] = system: HT-29
[18] = system: CAKI-1
[19] = system: SNB-19

Measured: GI50

CCCCCCCCCC[S+]([O-])CC(CO)NC(=O)/C=C/c1c(C)nc(O)nc1O (stereo unspecified)
active: [1] 0.484 µM | [5] 0.244 µM | [6] 1.04 µM | [8] 0.815 µM | [9] 0.199 µM | [10] 1.09 µM | [13] 0.501 µM | [14] 0.47 µM | [15] 0.247 µM
inactive: [2] 4.43 µM | [4] 2.22 µM | [7] 20.8 µM | [11] 1.38 µM | [12] 13.4 µM | [16] 1.33 µM | [17] 1.36 µM
1.28 µM: [3]

Nc1ncnc2c1nnn2C1CCC(CP(=O)(O)O)C1 (stereo unspecified)
inactive: [1] > 100 µM | [18] > 100 µM | [2] > 100 µM | [4] > 100 µM | [5] > 100 µM | [6] > 100 µM | [7] > 100 µM | [8] > 100 µM | [9] > 100 µM | [11] > 100 µM | [12] > 100 µM | [13] > 100 µM | [14] > 100 µM | [15] > 100 µM | [19] > 100 µM | [16] > 100 µM | [17] > 100 µM
> 100 µM: [3]

CCOC(=O)NC(=O)c1cn(CC(=O)NCC(=O)NCC(=O)NCCCN2CCN(CCCNC(=O)CNC(=O)CNC(=O)Cn3cc(C(=O)NC(=O)OCC)c(=O)[nH]c3=O)CC2)c(=O)[nH]c1=O
inactive: [1] > 100 µM | [18] > 100 µM | [4] > 100 µM | [5] > 100 µM | [8] > 100 µM | [10] > 100 µM | [11] > 100 µM | [12] > 100 µM | [13] > 100 µM | [14] > 100 µM | [15] > 100 µM | [19] > 100 µM | [16] > 100 µM | [17] > 100 µM
> 100 µM: [3]

N#CC(C(=O)c1cccnc1Cl)c1nc2cc(C(F)(F)F)ccc2s1 (stereo unspecified)
inactive: [1] 99.3 µM | [18] > 100 µM | [2] 65.5 µM | [4] > 100 µM | [6] 41.6 µM | [7] > 100 µM | [9] 67 µM | [10] 26.7 µM | [11] 62.7 µM | [12] > 100 µM | [13] 60.5 µM | [14] 37.1 µM | [15] 44.2 µM | [19] 77.3 µM | [16] 75 µM | [17] 28.3 µM
35.3 µM: [3]

CSc1nncc(-c2cc3c(c(SC)n2)CCC3)n1
inactive: [18] 40.7 µM | [2] 69.5 µM | [4] > 100 µM | [6] > 100 µM | [8] > 100 µM | [9] 48.1 µM | [11] > 100 µM | [12] 53.6 µM | [15] > 100 µM | [19] > 100 µM | [16] > 100 µM | [17] > 100 µM
> 100 µM: [3]

COc1ccc2c(=O)c([Se]c3coc4cc(OC)ccc4c3=O)coc2c1
inactive: [1] 69 µM | [18] > 100 µM | [4] 32.6 µM | [5] > 100 µM | [6] > 100 µM | [8] 40.4 µM | [9] 44.6 µM | [10] 57.3 µM | [11] > 100 µM | [12] 72.1 µM | [13] > 100 µM | [14] 34.3 µM | [15] > 100 µM | [19] > 100 µM | [16] > 100 µM | [17] > 100 µM
50.9 µM: [3]

COc1ccc(C(=C[N+](=O)[O-])c2ccc(OC)cc2)cc1
8.05 µM: [3]
inactive: [1] 10.9 µM | [18] 11.6 µM | [4] 13.6 µM | [5] 11.4 µM | [6] 3.84 µM | [8] 5.19 µM | [9] 34.4 µM | [10] 8.2 µM | [11] 14.3 µM | [12] 30.1 µM | [13] 3.69 µM | [14] 13.3 µM | [15] 9.79 µM | [19] 22.2 µM | [16] 8.59 µM | [17] 4.52 µM

O=C(/C=C\c1cccc2ccccc12)c1ccc(Br)cc1
inactive: [1] 22.3 µM | [18] 33 µM | [4] > 100 µM | [5] 17.5 µM | [6] 14.8 µM | [8] 15 µM | [9] 16.4 µM | [10] > 100 µM | [11] 30.7 µM | [12] 17.4 µM | [13] 18.1 µM | [14] 31.3 µM | [15] 31.1 µM | [19] 25.7 µM | [16] 22.3 µM | [17] 18.2 µM
17.7 µM: [3]

CCCCCCCCCCCCC(CC)CCCCC(=O)O (stereo unspecified)
> 100 µM: [3]
inactive: [1] > 44.6 µM | [18] > 100 µM | [4] > 100 µM | [5] > 100 µM | [6] > 56.4 µM | [8] > 63.1 µM | [9] > 100 µM | [10] > 100 µM | [11] > 100 µM | [12] > 100 µM | [13] 40.6 µM | [14] > 100 µM | [15] > 58.3 µM | [19] > 100 µM | [16] > 100 µM | [17] > 65.6 µM

COC(=O)C1CCC(C)CC1=O (stereo unspecified)
inactive: [1] > 100 µM | [18] > 100 µM | [4] > 100 µM | [5] > 100 µM | [6] > 100 µM | [8] > 100 µM | [9] > 100 µM | [10] > 100 µM | [11] > 100 µM | [12] > 100 µM | [13] > 100 µM | [14] > 100 µM | [15] > 100 µM | [19] > 100 µM | [16] > 100 µM | [17] > 100 µM
> 100 µM: [3]

CCOC(=O)C1=C(Nc2ccccc2)SC/C1=N\NC(=O)Cc1ccccc1
> 100 µM: [3]
inactive: [1] > 100 µM | [18] > 100 µM | [4] > 100 µM | [5] > 100 µM | [8] > 100 µM | [9] > 100 µM | [10] > 100 µM | [11] > 100 µM | [12] > 100 µM | [13] > 100 µM | [14] > 100 µM | [15] > 100 µM | [19] > 100 µM | [16] > 100 µM | [17] > 100 µM

CC1=C(SC#N)S(=O)(=O)N(c2ccccc2)C(C)=C1SC#N
46 µM: [3]
inactive: [1] 43.3 µM | [18] 45.2 µM | [4] 40.7 µM | [5] > 100 µM | [6] 28.5 µM | [8] 29 µM | [9] 33.3 µM | [10] 22.6 µM | [11] 38.2 µM | [12] 44 µM | [13] 21 µM | [14] > 100 µM | [19] 25.1 µM | [16] 32 µM | [17] > 100 µM

CC(=O)O[C@H]1CC[C@@]2(C)C(=CC[C@@H]3[C@@H]2CC[C@]2(C)NC(=O)/C(=C\c4ccccc4)C[C@@H]32)C1
18.6 µM: [3]
inactive: [1] 16.1 µM | [18] 25.9 µM | [2] 24.5 µM | [4] 17.1 µM | [5] 21.3 µM | [6] 12.3 µM | [7] 13.5 µM | [9] 16.5 µM | [10] 13.8 µM | [11] 20.9 µM | [12] 21.9 µM | [13] > 100 µM | [14] 18 µM | [15] 17.1 µM | [19] 16.1 µM | [16] 17.5 µM | [17] 15 µM

COc1cc2c3c(c1OC)-c1ccccc1C(C(OC(C)=O)c1ccccc1)C3N(C)CC2 (stereo unspecified)
inactive: [1] > 100 µM | [18] 63 µM | [4] 32.8 µM | [5] 6.81 µM | [6] 5.55 µM | [8] 5.4 µM | [9] 9.16 µM | [10] 31.7 µM | [11] > 100 µM | [12] 14.8 µM | [13] > 10 µM | [14] 33.2 µM | [15] 30.3 µM | [19] 48.4 µM | [16] 58.5 µM | [17] 38.3 µM
27.7 µM: [3]

CCCCCCCCCCCC(=O)OCC1OC(OC)C(NC(=O)N(CCCl)N=O)C(O)C1O (stereo unspecified)
inactive: [1] 2.96 µM | [18] > 100 µM | [4] 12.5 µM | [5] 14.4 µM | [6] 7.5 µM | [9] 17.8 µM | [10] 18.7 µM | [12] 10.6 µM | [13] 10.3 µM | [14] 12.2 µM | [15] 21.9 µM | [19] 10.1 µM | [16] 14.3 µM | [17] 16.9 µM
27.2 µM: [3]

COc1ccc(CN(O)C2C(CO)OC(n3cc(I)c(=O)[nH]c3=O)C2O)cc1 (stereo unspecified)
inactive: [1] > 100 µM | [18] > 100 µM | [4] > 100 µM | [5] > 100 µM | [6] > 100 µM | [8] > 100 µM | [9] > 100 µM | [10] > 100 µM | [11] > 100 µM | [12] > 100 µM | [13] > 100 µM | [14] > 100 µM | [15] > 100 µM | [19] > 100 µM | [16] > 100 µM | [17] > 100 µM
> 100 µM: [3]

COc1cc2c(c(OC)c1OC)-c1ccc(SC)c(=O)cc1[C@@H](NCc1cccc(C#N)c1)CC2
active: [1] 0.014 µM | [18] 0.0075 µM | [4] 0.0345 µM | [5] 0.0198 µM | [6] 0.0345 µM | [8] 0.0419 µM | [9] 0.0075 µM | [10] 0.0161 µM | [11] 0.0115 µM | [12] 0.047 µM | [13] 0.0361 µM | [14] 0.0232 µM | [15] 0.0202 µM | [19] 0.045 µM | [16] 0.0448 µM | [17] 0.0154 µM
0.0239 µM: [3]
